Laboratory results reported in patent publication US20170190705A1, “Compositions and Methods for Inhibiting BMP” (THE BRIGHAM AND WOMAN'S HOSPITAL, INC., priority 2014, published 2017).
Where two headings read alike, the source gives them in different places.

Key:
ALK5 = target: T1, ALK5 (Homo sapiens, UniProt P36897); assay: Thermal shift kinase assay ALK5; assay type: binding; conditions: for ΔTm at 10 µM: 10 μM inhibitor; for ΔT ALK5: Table 6
T1 construct: made in house
T1 sequence (P36897 34-503): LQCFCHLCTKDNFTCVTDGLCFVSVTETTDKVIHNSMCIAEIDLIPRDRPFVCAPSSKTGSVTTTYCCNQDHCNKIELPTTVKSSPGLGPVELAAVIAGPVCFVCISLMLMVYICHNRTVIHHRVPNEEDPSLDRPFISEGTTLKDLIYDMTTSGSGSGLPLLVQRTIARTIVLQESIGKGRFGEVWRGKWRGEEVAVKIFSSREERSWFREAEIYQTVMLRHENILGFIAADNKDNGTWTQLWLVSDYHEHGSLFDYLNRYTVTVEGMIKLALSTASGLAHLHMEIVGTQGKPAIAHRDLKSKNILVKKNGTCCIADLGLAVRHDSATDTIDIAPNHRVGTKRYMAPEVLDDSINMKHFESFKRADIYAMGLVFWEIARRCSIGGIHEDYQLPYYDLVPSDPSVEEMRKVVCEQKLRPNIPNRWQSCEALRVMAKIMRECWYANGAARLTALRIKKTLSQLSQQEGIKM
Procedure: Thermal melting experiments were performed using a Real Time PCR machine Mx3005p (Stratagene) with a protein concentration of 1-2 μM and 10 μM inhibitor as described by Niesen et al., Nat Protoc 2007, 2, 2212-21. Recombinant human kinases for DSF screening were prepared by SGC using the published methods of Sanvitale et al., PLoS One 2013, 8, e62721. The potency and selectivity of certain compounds of the invention based on thermal shift kinase and ligand induced transcriptional activity assays are shown in Table 2.

PDGFRα = PDGFRα (Homo sapiens, UniProt P16234); assay: Kinome profiling PDGFRα; assay type: biochemical; conditions: read-out: Inhibitory activity PDGFRα; for inhibition at 0.1 µM: 100 nM
Procedure: (§1) . The kinome-wide selectivity was determined following the methods previously reported by Mohedas et al., ACS Chem Biol 2013, 8, 1291-1302 and Sanvitale et al., PLoS One 2013, 8, e62721.

caALK4 = target: T2, caALK4 (Homo sapiens, UniProt P36896); assay: Luciferase reporter assay constitutively active ALK4; conditions: read-out: Cell Based Assay caALK4 IC50
T2 sequence (P36896 1-505 T206D): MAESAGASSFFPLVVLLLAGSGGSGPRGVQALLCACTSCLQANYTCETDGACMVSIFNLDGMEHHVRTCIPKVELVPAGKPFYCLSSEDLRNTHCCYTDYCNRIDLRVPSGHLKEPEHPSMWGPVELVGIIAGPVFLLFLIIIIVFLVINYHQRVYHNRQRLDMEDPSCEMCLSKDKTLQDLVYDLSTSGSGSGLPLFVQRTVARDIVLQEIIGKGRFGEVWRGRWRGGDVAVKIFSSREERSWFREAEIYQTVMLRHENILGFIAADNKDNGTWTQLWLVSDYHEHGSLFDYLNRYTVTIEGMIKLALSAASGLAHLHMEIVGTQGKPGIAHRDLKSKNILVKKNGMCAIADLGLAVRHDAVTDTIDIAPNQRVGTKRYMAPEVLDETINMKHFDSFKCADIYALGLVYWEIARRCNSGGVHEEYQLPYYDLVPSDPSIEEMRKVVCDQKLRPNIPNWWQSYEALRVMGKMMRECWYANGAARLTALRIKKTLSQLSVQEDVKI
Excerpt: C2Cl2 […] cells stably transfected with BMP responsive element from the Id promoter fused to luciferase reporter gene (BRE-Luc) were generously provided by Dr. Peter ten Dijke (Leiden University Medical Center, NL) following the methods described by Zilberberg et al., BMC cell biology 2007, 8, 41-50. Human embryonic kidney 293T cells stably transfected with the TGF-β responsive element from the PAI-1 promoter fused to luciferase reporter gene (CAGA-Luc) were generously provided by Dr. Howard Weiner (Brigham and Women's Hospital, Boston, Mass.) following the methods described by Oida et al., PloS one 2011, 6, e18365. C2Cl2 Bre-Luc and 293T CAGA-Luc cells were seeded in DMEM supplemented with 2% FBS at 20,000 cells per well in tissue culture treated 96-well plates (Costar® 3610; Corning). The cells were incubated for 1 h (37° C. and 10% CO2) and allowed to settle and attach. Compounds of interest or DMSO were diluted in DMEM and added at final compound concentrations of 1 nM to 10 μM. Cells were then incubated for 30 min. Adenovirus expressing constitutively active BMP and TGF-β type I receptors (Ad.caALK1-5), generously provided by Dr. Akiko Hata (University of to California at San Francisco), were added to achieve a multiplicity of infection (MOI) of 100. Plates were incubated overnight at 37° C. Cell viability was assayed with an MIT (3-(4,5-dimethylthiazol-2-yl)-2,5-diphenyl tetrazolium bromide) colorimetric assay (Promega) per the manufacturer's instructions. Media was discarded, and firefly luciferase activity was measured (Promega) according to manufacturer's protocol. Light output was measured using a Spectramax L luminometer (Molecular Devices) with an integration time of one second per well. Data was normalized to 100% of incremental BRE-Luc activity due to adenoviruses specifying caALK1, 2, or 3, or the incremental CAGA-Luc activity due to adenoviruses specifying caALK4 or 5.

MAPKAPK2 = MAPKAPK2 (Homo sapiens, UniProt P49137); assay: Kinome profiling MAPKAPK2; assay type: biochemical; conditions: read-out: Inhibitory activity MAPKAPK2; for inhibition at 0.1 µM: 100 nM
Procedure: as §1

PI3-K-δ = PI3-K-δ (Homo sapiens, UniProt O00329); assay: Kinome profiling PI3-K-δ; assay type: biochemical; conditions: read-out: Inhibitory activity PI3-K-δ; for inhibition at 0.1 µM: 100 nM
Procedure: as §1

ABL1 = ABL1 (Homo sapiens, UniProt P00519); assay: Kinome profiling ABL1; assay type: biochemical; conditions: for inhibition at 0.1 µM: 100 nM
Procedure: as §1

GRK6 = GRK6 (Homo sapiens, UniProt P43250); assay: Kinome profiling GRK6; assay type: biochemical; conditions: read-out: Inhibitory activity GRK6; for inhibition at 0.1 µM: 100 nM
Procedure: as §1

[1] = Table 4, read-out: Inhibitory Activity ABL1
[2] = read-out: Inhibitory activity ABL1

PDGFRα, sequence (P16234 24-1089): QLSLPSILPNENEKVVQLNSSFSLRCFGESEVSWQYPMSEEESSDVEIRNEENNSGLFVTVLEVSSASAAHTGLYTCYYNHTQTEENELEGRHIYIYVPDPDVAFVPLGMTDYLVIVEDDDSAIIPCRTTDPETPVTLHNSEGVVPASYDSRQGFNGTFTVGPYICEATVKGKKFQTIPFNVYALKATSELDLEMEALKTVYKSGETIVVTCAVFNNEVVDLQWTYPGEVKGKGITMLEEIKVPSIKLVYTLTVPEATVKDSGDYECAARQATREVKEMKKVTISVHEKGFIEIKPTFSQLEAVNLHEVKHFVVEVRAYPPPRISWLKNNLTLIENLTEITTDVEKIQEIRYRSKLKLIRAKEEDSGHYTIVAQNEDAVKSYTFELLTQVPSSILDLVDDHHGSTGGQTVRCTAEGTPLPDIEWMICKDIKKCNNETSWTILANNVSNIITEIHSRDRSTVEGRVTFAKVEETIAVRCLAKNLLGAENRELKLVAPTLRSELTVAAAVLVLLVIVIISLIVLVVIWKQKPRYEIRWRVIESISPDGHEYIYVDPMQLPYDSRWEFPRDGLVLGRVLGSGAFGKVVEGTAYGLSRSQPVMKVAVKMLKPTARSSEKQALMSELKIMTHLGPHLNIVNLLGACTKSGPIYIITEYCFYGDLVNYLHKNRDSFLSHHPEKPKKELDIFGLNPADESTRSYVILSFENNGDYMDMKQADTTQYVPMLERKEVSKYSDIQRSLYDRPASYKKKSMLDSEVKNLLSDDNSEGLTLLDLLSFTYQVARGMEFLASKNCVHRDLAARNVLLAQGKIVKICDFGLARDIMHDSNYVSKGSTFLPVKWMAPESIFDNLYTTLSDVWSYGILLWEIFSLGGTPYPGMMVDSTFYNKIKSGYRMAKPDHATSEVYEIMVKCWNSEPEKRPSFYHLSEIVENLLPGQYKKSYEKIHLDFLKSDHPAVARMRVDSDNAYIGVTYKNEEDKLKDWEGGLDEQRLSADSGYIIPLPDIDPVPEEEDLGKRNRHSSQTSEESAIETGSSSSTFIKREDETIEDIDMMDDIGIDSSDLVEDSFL
PI3-K-δ, sequence (O00329 whole entry): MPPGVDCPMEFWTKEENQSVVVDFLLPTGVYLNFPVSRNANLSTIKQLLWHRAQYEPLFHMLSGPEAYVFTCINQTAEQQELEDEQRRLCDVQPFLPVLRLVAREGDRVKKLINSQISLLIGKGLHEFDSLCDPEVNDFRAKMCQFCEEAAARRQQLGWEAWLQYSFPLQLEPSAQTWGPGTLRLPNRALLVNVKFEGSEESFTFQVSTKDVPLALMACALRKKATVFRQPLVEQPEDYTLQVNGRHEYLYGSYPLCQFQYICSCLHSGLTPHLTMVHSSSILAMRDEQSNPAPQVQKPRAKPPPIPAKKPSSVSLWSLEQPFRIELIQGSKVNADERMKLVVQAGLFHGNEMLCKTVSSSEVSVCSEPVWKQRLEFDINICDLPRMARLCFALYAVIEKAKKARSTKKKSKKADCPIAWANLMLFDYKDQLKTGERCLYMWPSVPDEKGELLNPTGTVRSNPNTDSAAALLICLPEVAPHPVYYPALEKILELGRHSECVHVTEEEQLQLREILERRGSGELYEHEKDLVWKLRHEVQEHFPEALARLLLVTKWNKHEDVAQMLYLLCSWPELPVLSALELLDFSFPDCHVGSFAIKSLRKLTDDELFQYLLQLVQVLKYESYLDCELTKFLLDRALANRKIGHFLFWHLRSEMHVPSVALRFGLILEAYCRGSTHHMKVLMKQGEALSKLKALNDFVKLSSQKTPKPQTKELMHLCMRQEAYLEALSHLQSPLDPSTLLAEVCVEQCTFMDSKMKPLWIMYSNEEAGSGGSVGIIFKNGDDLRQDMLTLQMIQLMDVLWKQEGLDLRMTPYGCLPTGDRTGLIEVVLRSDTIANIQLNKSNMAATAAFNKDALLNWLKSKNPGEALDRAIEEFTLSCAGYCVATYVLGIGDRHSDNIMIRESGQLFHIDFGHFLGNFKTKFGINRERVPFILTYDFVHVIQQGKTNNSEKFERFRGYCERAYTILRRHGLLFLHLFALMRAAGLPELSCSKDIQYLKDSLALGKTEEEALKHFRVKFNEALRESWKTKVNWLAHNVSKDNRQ
PI3-K-δ, sequence (P27986 whole entry partner): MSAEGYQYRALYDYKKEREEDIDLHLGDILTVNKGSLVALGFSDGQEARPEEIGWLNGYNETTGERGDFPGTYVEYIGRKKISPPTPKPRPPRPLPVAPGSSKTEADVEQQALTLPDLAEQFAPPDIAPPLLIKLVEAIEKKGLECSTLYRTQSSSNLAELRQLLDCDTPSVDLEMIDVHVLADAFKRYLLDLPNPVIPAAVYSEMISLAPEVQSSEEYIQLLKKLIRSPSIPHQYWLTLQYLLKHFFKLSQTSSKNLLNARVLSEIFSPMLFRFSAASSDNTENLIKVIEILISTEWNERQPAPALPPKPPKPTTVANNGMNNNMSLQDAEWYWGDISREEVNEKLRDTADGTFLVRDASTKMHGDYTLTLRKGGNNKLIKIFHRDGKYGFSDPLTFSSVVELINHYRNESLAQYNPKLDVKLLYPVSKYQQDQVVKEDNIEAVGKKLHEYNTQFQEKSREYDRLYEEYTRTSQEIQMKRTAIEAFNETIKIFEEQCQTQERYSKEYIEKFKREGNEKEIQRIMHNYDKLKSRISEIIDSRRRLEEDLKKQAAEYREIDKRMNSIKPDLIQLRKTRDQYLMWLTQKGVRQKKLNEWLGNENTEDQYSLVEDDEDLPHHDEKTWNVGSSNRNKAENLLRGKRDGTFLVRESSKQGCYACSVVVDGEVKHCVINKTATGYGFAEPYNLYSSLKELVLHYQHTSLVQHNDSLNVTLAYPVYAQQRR
MAPKAPK2, sequence (P49137 whole entry): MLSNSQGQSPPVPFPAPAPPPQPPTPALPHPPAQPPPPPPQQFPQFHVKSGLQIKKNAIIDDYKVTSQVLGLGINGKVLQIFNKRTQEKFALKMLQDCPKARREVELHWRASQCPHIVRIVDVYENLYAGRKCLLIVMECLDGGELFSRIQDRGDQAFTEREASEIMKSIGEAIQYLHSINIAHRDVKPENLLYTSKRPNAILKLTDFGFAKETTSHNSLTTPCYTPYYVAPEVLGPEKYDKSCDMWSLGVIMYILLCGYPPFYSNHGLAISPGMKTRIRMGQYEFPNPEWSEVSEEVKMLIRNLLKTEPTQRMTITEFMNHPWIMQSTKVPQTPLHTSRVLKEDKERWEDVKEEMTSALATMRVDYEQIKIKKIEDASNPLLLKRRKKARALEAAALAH
GRK6, sequence (P43250 whole entry): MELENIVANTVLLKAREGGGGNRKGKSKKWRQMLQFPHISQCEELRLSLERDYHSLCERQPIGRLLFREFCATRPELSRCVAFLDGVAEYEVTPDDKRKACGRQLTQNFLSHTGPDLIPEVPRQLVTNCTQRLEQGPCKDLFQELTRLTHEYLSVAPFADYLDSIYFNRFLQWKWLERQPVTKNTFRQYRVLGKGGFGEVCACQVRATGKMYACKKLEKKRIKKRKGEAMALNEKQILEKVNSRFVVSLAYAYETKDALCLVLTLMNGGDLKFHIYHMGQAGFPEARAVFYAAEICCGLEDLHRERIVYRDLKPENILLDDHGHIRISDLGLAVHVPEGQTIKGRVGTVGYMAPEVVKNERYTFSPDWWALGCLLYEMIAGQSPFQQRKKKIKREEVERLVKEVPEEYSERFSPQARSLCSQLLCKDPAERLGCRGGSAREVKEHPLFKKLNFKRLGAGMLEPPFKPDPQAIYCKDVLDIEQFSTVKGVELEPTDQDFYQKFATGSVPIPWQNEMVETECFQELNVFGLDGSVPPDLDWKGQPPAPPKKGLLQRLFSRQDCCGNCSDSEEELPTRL
ABL1, sequence (P00519 whole entry): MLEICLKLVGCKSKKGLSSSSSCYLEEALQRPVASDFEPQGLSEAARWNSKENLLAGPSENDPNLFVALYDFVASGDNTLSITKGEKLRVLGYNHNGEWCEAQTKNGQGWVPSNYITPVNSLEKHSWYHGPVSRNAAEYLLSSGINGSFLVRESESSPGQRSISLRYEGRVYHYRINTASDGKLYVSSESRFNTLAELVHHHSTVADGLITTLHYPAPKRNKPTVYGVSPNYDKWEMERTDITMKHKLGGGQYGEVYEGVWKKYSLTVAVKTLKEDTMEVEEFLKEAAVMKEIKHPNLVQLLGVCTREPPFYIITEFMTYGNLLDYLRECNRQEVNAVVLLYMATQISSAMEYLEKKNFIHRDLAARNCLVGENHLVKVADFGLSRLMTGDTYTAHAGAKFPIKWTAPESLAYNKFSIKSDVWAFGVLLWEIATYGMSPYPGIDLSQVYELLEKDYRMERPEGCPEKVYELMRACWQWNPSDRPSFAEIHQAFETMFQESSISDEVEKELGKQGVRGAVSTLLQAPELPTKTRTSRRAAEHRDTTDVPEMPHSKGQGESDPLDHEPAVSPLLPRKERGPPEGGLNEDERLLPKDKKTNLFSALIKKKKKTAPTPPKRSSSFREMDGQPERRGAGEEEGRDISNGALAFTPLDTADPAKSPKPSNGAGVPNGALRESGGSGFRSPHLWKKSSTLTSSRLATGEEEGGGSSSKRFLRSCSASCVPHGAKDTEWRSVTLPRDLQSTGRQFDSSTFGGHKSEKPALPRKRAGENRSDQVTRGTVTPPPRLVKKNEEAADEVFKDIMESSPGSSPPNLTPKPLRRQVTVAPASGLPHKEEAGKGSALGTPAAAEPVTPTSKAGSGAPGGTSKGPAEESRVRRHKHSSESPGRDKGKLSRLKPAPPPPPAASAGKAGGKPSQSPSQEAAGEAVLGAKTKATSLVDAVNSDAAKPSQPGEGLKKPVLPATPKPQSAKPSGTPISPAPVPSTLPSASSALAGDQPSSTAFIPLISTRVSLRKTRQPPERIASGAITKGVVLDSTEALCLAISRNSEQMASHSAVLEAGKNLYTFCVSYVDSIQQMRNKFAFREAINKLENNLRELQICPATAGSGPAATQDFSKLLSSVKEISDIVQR

Compound: COc1cc(-c2cc(-c3ccc(N4CCNCC4)cc3)cnc2C)cc(OC)c1OC [Compound 10, 1-(4-(6-methyl-5-(3,4,5-trimethoxyphenyl)pyridin-3-yl)phenyl)piperazine]
- ΔTm at 10 µM (ALK5): 9.7 °C
- ΔT ALK5 (ALK5): 9.7 °C
- inhibition at 0.1 µM (PDGFRα): 9%
- inhibition at 1 µM (PDGFRα): 40%
- IC50 (caALK4): 5530 nM
- inhibition at 0.1 µM (MAPKAPK2): 4%
- inhibition at 1 µM (MAPKAPK2): 4%
- inhibition at 0.1 µM (PI3-K-δ): 8%
- inhibition at 1 µM (PI3-K-δ): 7%
- inhibition at 0.1 µM (ABL1; [1]): 56%
- inhibition at 0.1 µM (ABL1; [2]): 56%
- inhibition at 1 µM (ABL1; [1]): 93%
- inhibition at 1 µM (ABL1; [2]): 93%
- inhibition at 0.1 µM (GRK6): 8%
- inhibition at 1 µM (GRK6): 3%

Compound: COc1cc(-c2cc(-c3ccc(N4CCNCC4)cc3)cnc2N)cc(OC)c1OC [Compound 15, 5-(4-(piperazin-1-yl)phenyl)-3-(3,4,5-trimethoxyphenyl)pyridin-2-amine]
- ΔTm at 10 µM (ALK5): 13.9 °C
- ΔT ALK5 (ALK5): 13.9 °C
- inhibition at 0.1 µM (PDGFRα): 39%
- inhibition at 1 µM (PDGFRα): 76%
- IC50 (caALK4): 25 nM
- inhibition at 0.1 µM (MAPKAPK2): 0%
- inhibition at 1 µM (MAPKAPK2): -4%
- inhibition at 0.1 µM (PI3-K-δ): 3%
- inhibition at 1 µM (PI3-K-δ): 7%
- inhibition at 0.1 µM (ABL1; [2]): 77%
- inhibition at 1 µM (ABL1; [2]): 84%
- inhibition at 0.1 µM (GRK6): 0%
- inhibition at 1 µM (GRK6): 0%
